Counter-ions that a name gives are not always drawn. Like-named read-outs stand apart in the source and are kept apart here.
Assays:
[1] = molecular target: T1, Porcine pancreatic phospholipase A2 (Sus scrofa, UniProt P00592); assay: Phospholipase A2 inhibitory activity, method A (egg yolk lecithin substrate); format: biochemical; conditions: 1,000 ppm, 37°C for 30 minutes, read-out: % inhibition of PLA2 (1,000 ppm)
T1 construct: purchased Boehringer Mannheim·Yamanouchi K.K. 161454·122416
In short: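 Egg yolk lecithin dispersed with glycerine, Triton X-100 and CaCl2 in 50 mM Tris-HCl pH7.5 was hydrolysed by enzyme (20 ng/ml solution) with compound, 37°C, 30 min. Released free fatty acid measured by ACS-ACOD method at 540 nm; apparent enzyme level read from a standard curve to give percent inhibition.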

[2] = Acute toxicity, intravenous injection (LD50); format: in vivo; conditions: mouse, in vivo, iv, ddy male mice, sodium salt, mortality over one week
Experimental: Administration route: Intravenous injection
Using ddy male mice (body weight: 25 - 30 g), each test group consisted of 5 mice. A test compound was dissolved in the form of a sodium salt in a physiological saline or in a 5% glucose aqueous solution, and intravenously injected in an amount of 0.1 ml/10 g body weight. After the injection, the mortality rate was obtained over one week, and the median lethal dose LD50 (mg/kg) was determined.

[3] = system: experimental acute pancreatitis model; assay: Effects against acute pancreatitis (Test Example 8, closed duodenal loop method, lesion scores); format: in vivo, Crj-CD male rats; conditions: sodium salt, 6 hours after ventrotomy; for inhibition in vivo at 10 mg/kg: Rattus norvegicus, 10 mg/kg single intravenous injection
In short: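 Closed duodenal loop pancreatitis in male Crj-CD rats (n=3) under halothane/nitrous oxide; sodium-salt compounds given i.v. into tail vein by continuous infusion or bolus, controls untreated. At 6 h, four pancreatic lesions scored 0-3; inhibition % of total and hemorrhagic scores calculated versus control.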

[4] = system: increased vascular permeability induced by acetic acid; assay: Inhibitory activity on increased vascular permeability induced by acetic acid (Rat Whittle method, method D); format: in vivo, SD (Crj: CD) male rats; conditions: amount of leaked dye
Experimental: Using SD (Crj: CD) male rats, each test group consisted of from 3 to 5 rats. A test compound was mixed with Tween 80 [polyoxyethylenesorbitan monooleate (manufactured by Nacalai Tesque K.K.)], and distilled water was added thereto to obtain a 2% Tween 80 suspension, or it was dissolved in the form of a salt in water to obtain an aqueous solution. A test compound was orally administered, and one hour later, 0.7% acetic acid was intraperitonially injected to each rat in an amount of 0.05 ml/10 g, and at the same time, 2% brilliant blue was intravenously injected into the tail vein in an amount of 0.05 ml/20 g. Thirty minutes after the injection of brilliant blue, the cervical vertebrae were dislocated under anesthesia by chloroform, and the abdorminal cavity was washed with 10 ml of a physiological saline. The washing solution was subjected to centrifugal separation at 3,000 rpm for 10 minutes, and the amount of the dye in the supernatant was measured at 600 nm absorbance by Microplate ELISA Reader (Model 2550EIA Reader, manufactured by Bio-Rad Laboratories). The inhibition rate of the amount of leaked dye in the group to which a test compound was administered relative to the control group was obtained from the following formula, and the results are shown in Table 9. Inhibition rate (%) = (l -(C)/(D)) x 100 [formula] • C: Amount of leaked dye in the group to which a test compound was administered. • D: Amount of leaked dye in the control group.

[5] = 20 mg/kg continuous intravenous injection
[6] = read-out: Inhibition rate of hemorrhagic lesions (%)
[7] = read-out: Inhibition rate of pancreatitis lesions (%)

T1 sequence (P00592 23-146): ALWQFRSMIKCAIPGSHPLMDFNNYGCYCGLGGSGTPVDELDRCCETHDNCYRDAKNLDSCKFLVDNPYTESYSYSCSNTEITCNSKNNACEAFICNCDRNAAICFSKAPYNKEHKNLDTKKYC

| Structure (SMILES) | inhibition at 1000 ppm [1] [%] | LD50 at 168 h [2] [mg/kg] | inhibition in vivo at 10 mg/kg [3, 6] [%] | inhibition in vivo at 10 mg/kg [3, 7] [%] | further results |
| --- | --- | --- | --- | --- | --- |
| CS(=O)(=O)Nc1ncc(C(F)(F)F)cc1NC(=O)c1ccc(F)cc1 [Compound No. 10, N-(2-methylsulfonylamino-5-trifluoromethyl-3-pyridyl)-4-fluorobenzamide] | 60 | 50 to 100 | – | – | – |
| CCS(=O)(=O)Nc1ncc(C(F)(F)F)cc1NC(=O)C1CCCCC1 [Compound No. 47, N-(2-ethylsulfonylamino-5-trifluoromethyl-3-pyridyl)cyclohexanecarboxamide] | 75 | 58 | – | – | Inhibition rate of hemorrhagic lesions (%) [3, 5]: 68% |
| CCS(=O)(=O)Nc1ncc(C(F)(F)F)cc1NC(=O)C1CCCCC1 [Compound No. 251, sodium salt of N-(2-ethylsulfonylamino-5-trifluoromethyl-3-pyridyl)cyclohexanecarboxamide] | – | – | 79 | 80 | Inhibition rate (%) ([4]; dose 12.5 mg/kg orally): 46% |
| CS(=O)(=O)Nc1ncc(C(F)(F)F)cc1NC(=O)C(F)(F)C(F)(F)F [compound 13] | 87 | > 70 | – | – | Inhibition rate of hemorrhagic lesions (%) ([3]; 23 mg/kg continuous intravenous injection): 100% |
| CS(=O)(=O)Nc1ncc(C(F)(F)F)cc1NC(=O)c1ccccc1 [compound 43] | 47 | 78 | – | – | Inhibition rate of hemorrhagic lesions (%) [3, 5]: 81% |
| CS(=O)(=O)Nc1ncc(C(F)(F)F)cc1NC(=O)C1CCCC1 [compound 45] | 50 | 98 | – | – | Inhibition rate of hemorrhagic lesions (%) ([3]; 25 mg/kg continuous intravenous injection): 62% |
| Cc1cccc(C(=O)Nc2cc(C(F)(F)F)cnc2NS(C)(=O)=O)c1 [compound 78] | – | > 60 | 96 | 91 | Inhibition rate (%) ([4]; dose 25 mg/kg orally): 40% |
| CS(=O)(=O)Nc1ncc(C(F)(F)F)cc1NC(=O)c1cccc(Cl)c1 [compound 79] | – | – | 23 | 39 | Inhibition rate (%) ([4]; dose 50 mg/kg orally): 74% |
| CS(=O)(=O)Nc1ncc(C(F)(F)F)cc1NC(=O)c1cc2ccccc2s1 [compound 86] | – | > 40 | 87 | 85 | Inhibition rate (%) ([4]; dose 50 mg/kg orally): 37% |
| CS(=O)(=O)Nc1ncc(C(F)(F)F)cc1NC(=O)c1ccc2c(c1)CCC2 [compound 87] | – | 75 | 83 | 87 | Inhibition rate (%) ([4]; dose 12.5 mg/kg orally): 47% |
| C/C=C/C(=O)Nc1cc(C(F)(F)F)cnc1NS(=O)(=O)CC [compound 93, N-(2-ethylsulfonylamino-5-trifluoromethyl-3-pyridyl)crotonamide] | – | – | 70 | 70 | Inhibition rate (%) ([4]; dose 25 mg/kg orally): 54% |
| CCS(=O)(=O)Nc1ncc(C(F)(F)F)cc1NC(=O)C1CCCC1 [compound 94] | – | – | 11 | 11 | Inhibition rate (%) ([4]; dose 25 mg/kg orally): 45% |

From EP0465913B1, “Diaminotrifluoromethylpyrimidine derivatives, process for their production and phospholipase A2 inhibitor containing them” (ISHIHARA SANGYO KAISHA, LTD., priority 1990, dated 1992)
